# Measured values taken from patent publication US6696479B2, “Crystalline forms” (Ciba Specialty Chemicals Corporation, priority 2001, dated 2004).
# Tests used:
# [1] = Water content of highly crystalline Form A (Karl Fisher titration); assay type: physicochemical
# Experimental: Highly crystalline Fluvastatin sodium Form A can generally be prepared by equilibration of an aqueous suspension or solution of Fluvastatin sodium for several hours at temperatures from about 0 to 10° C. and subsequent drying by lyophilization. The process can be accelerated by additional seeding with crystals of Form A during the equilibration period. A characteristic X-ray powder diffraction pattern for highly crystalline Form A is depicted in FIG. 1. The crystallinity of this material is estimated by the powder diffraction spectrum to be more than 90%. The estimated water content is below 2%.
# A 30 ml aqueous solution of 30° C. containing ca. 3 grams of Fluvastatin sodium was cooled to about 2° C. and was allowed to stand at this temperature for 6 hours. Subsequently, the off-white coloured suspension was frozen using a dry-ice bath and dried by lyophilization for 24 hours. […] From its X-ray powder diffraction pattern it was estimated that the crystallinity is more than 90%, see FIG. 1.
# [2] = compared with Form A or the amorphous form; from WO-A-97/49681 / U.S. Pat. No. 6,124,340; cited from earlier work
# [3] = Estimated water content of crystalline forms obtained by equilibration under defined relative humidity; assay type: physicochemical
# From the text: Forms C, D, E and F can be prepared according to a process, wherein Fluvastatin sodium is exposed to an atmosphere having a defined relative humidity. […] As a rule the estimated water content can range from 3-6%. […] As a rule the estimated water content can range from 6-12%. […] As a rule the estimated water content can range from 15-22%. […] As a rule the estimated water content can range from 24-32%.
compound,measurement,setting,value
"CC(C)n1c(/C=C/[C@H](O)C[C@H](O)CC(=O)[O-])c(-c2ccc(F)cc2)c2ccccc21.[Na+] (racemic) [Form A, (±)-7-(3-(4-fluorophenyl)-1-(1-methylethyl)-1H-indol-2-yl)-3,5-dihydroxy-6-heptenoic acid monosodium salt]",water content,"[1]; Karl Fisher titration, Example 1, lyophilized 24 hours",below 2%
same,estimated water content,"[1]; aqueous suspension or solution equilibrated at about 0 to 10° C., then lyophilization",below 2%
"CC(C)n1c(/C=C/[C@H](O)C[C@H](O)CC(=O)[O-])c(-c2ccc(F)cc2)c2ccccc21.[Na+] (racemic) [Form B, (±)-7-(3-(4-fluorophenyl)-1-(1-methylethyl)-1H-indol-2-yl)-3,5-dihydroxy-6-heptenoic acid monosodium salt]",hygroscopicity,[2],less hygroscopic than Form A or the amorphous form
"CC(C)n1c(/C=C/[C@H](O)C[C@H](O)CC(=O)[O-])c(-c2ccc(F)cc2)c2ccccc21.[Na+] (racemic) [Form C, (±)-7-(3-(4-fluorophenyl)-1-(1-methylethyl)-1H-indol-2-yl)-3,5-dihydroxy-6-heptenoic acid monosodium salt]",estimated water content,[3]; equilibration under relative humidity from about 15 to 25% (for example 6 to 24 hours),3-6%
"CC(C)n1c(/C=C/[C@H](O)C[C@H](O)CC(=O)[O-])c(-c2ccc(F)cc2)c2ccccc21.[Na+] (racemic) [Form D, (±)-7-(3-(4-fluorophenyl)-1-(1-methylethyl)-1H-indol-2-yl)-3,5-dihydroxy-6-heptenoic acid monosodium salt]",estimated water content,[3]; equilibration under relative humidity from about 30 to 50% (for example 6 to 24 hours),6-12%
"CC(C)n1c(/C=C/[C@H](O)C[C@H](O)CC(=O)[O-])c(-c2ccc(F)cc2)c2ccccc21.[Na+] (racemic) [Form E, (±)-7-(3-(4-fluorophenyl)-1-(1-methylethyl)-1H-indol-2-yl)-3,5-dihydroxy-6-heptenoic acid monosodium salt]",estimated water content,[3]; equilibration under relative humidity from about 55 to 75% (for example several days),15-22%
"CC(C)n1c(/C=C/[C@H](O)C[C@H](O)CC(=O)[O-])c(-c2ccc(F)cc2)c2ccccc21.[Na+] (racemic) [Form F, (±)-7-(3-(4-fluorophenyl)-1-(1-methylethyl)-1H-indol-2-yl)-3,5-dihydroxy-6-heptenoic acid monosodium salt]",estimated water content,[3]; equilibration under relative humidity from about 80 to 90% (for example several days),24-32%
